Patent publication US9670550B2, “Method for examination of carcinogenic risk” (JAPANESE FOUNDATION FOR CANCER RESEARCH, priority 2013, dated 2017)

Experiments:
liver cancer [1] = assay: Liver cancer development in mice fed high-fat diets and given antibiotic cocktail, with oral deoxycholic acid; assay type: in vivo; conditions: 40 μg/g body weight orally three times a week, high-fat diet + antibiotic cocktail
Protocol: From the 13th week after the start of the raising, the antibiotic cocktail was administered to mice fed high-fat diets, which were then further raised. To these mice, 40 μg/g body weight of deoxycholic acid (DCA) or only a vehicle as a control was orally administered three times a week (FIG. 5A). […] The cancer was rarely developed in the control mouse group given only the vehicle, and even if the cancer was developed, its tumor size was small. On the other hand, the deoxycholic acid administration group had multiple cancer (25 or more tumors per individual), and also, its size was large.

gut microbiota = assay: Gut microbiota analysis of feces by PCR of 16S rRNA gene; assay type: in vivo, mice
Protocol: In this Example, in order to search for an intestinal bacterium related to cancer development, how the gut microbiota was atlered was analyzed (FIG. 4). In the experimental schedule shown in FIG. 3A, 3 groups were used: a group fed normal diets, a group fed high-fat diets, and a group fed high-fat diets and also given vancomycin. At the 30th week after the start of the raising, their feces were recovered, and the gut microbiota was analyzed.
The gut microbiota was identified by PCR analysis (Non Patent Literatures 11 and 12). Specifically, DNA was extracted from the feces and purified. The gene encoding 16S rRNA in many types of bacteria was amplified by PCR using universal primers. The V1-V4 hypervariable regions were further amplified, followed by identification.

liver cancer [2] = assay: Liver cancer development in DMBA-treated mice fed high-fat diets, antibiotic given in drinking water; assay type: in vivo; conditions: high-fat diet, antibiotic in drinking water from 13 weeks old, dissected at the 30th week
Excerpt: An acetone solution containing 0.5% of the carcinogenic substance DMBA (7,12-dimethylberiz[a]anthracene) was applied once to the backs of wild-type (C57BL/6) neonatal mice. The neonatal mice were raised together with their mother mouse by feeding with normal diets (ND) or high-fat diet (HFD) until 4 weeks old. The high-fat diets used were D12492 (Rodent Diet with 60% kcal % Fat; Research Diets, Inc., USA). The neonatal mice were weaned at 4 weeks old and subsequently raised with normal diets or high-fat diet. At 30 weeks old, their livers and lungs were excised, and the presence or absence of cancer development was analyzed. The average body weight of the mice at the time of dissection was 33 g for the mice fed normal diets and 51 g for the mice fed high-fat diets. The mice fed high-fat diets had approximately 1.5 times the body weights of the mice fed normal diets.
DMBA was applied to wild-type neonatal mice, followed by high-fat diet feeding. From 13 weeks old, an antibiotic cocktail (4Abx, antibiotic cocktail administration group) or vancomycin (VCM, vancomycin administration group) mixed with drinking water was administered to the mice. At the 30th week after the start of the raising, their livers were excised, and liver cancer development was analyzed. […]
The mice of each group were dissected at the 30th week, and liver cancer development was analyzed (FIGS. 3C and 3D).

intestinal bacteria = assay: Level of gene encoding intestinal bacterial 16S rRNA after antibiotic administration; assay type: in vivo; conditions: 17 weeks after antibiotic administration, 30 weeks after birth; high-fat diet; in drinking water; 3 mice per group
Protocol: DMBA was applied to wild-type neonatal mice, followed by high-fat diet feeding. From 13 weeks old, an antibiotic cocktail (4Abx, antibiotic cocktail administration group) or vancomycin (VCM, vancomycin administration group) mixed with drinking water was administered to the mice. At the 30th week after the start of the raising, their livers were excised, and liver cancer development was analyzed. On the other hand, the raising of a control group was continued in the same way as the aforementioned raising up to the 13th week. The antibiotic cocktail contained ampicillin (1 g/l), neomycin (1 g/l), metronidazole (1 g/l), and vancomycin (500 mg/l). In the case of administering vancomycin alone, 500 mg/l vancomycin was administered.

Row | liver tumor size (liver cancer [1]; n=3) | tumor number per individual (liver) (liver cancer [1]; n=3) | liver tumor development (liver cancer [1]; vs vehicle) | Structure (SMILES) | Gram-negative microbiota, proportion on average (gut microbiota; HFD+VCM group, average (FIG. 4)) | cluster XI of the genus Clostridium in gut microbiota (gut microbiota; feces at the 30th week, high-fat diets + vancomycin, n=2) | liver cancer development (tumor number and size) as compared with the control (liver cancer [2]) | amount of intestinal bacteria (level of gene encoding intestinal bacterial 16s rRNA) (intestinal bacteria)
1 | large | ≥ 25 tumors per individual | developed a large number of liver tumors | C[C@H](CCC(=O)O)[C@H]1CC[C@H]2[C@@H]3CC[C@@H]4C[C@H](O)CC[C@]4(C)[C@H]3C[C@H](O)[C@]12C [deoxycholic acid] |  |  |  | 
2 |  |  |  | CN[C@H](CC(C)C)C(=O)N[C@H]1C(=O)N[C@@H](CC(N)=O)C(=O)N[C@H]2C(=O)N[C@H]3C(=O)N[C@H](C(=O)N[C@H](C(=O)O)c4cc(O)cc(O)c4-c4cc3ccc4O)[C@H](O)c3ccc(c(Cl)c3)Oc3cc2cc(c3O[C@@H]2O[C@H](CO)[C@@H](O)[C@H](O)[C@H]2O[C@H]2C[C@](C)(N)[C@H](O)[C@H](C)O2)Oc2ccc(cc2Cl)[C@H]1O [vancomycin] | 99% | 0% | developed no liver cancer or developed liver cancer with a smaller tumor number and a smaller size | decreased into a very small level
